Results: ChEMBL document CHEMBL5653631, “A Potent and Selective ULK1 Inhibitor Suppresses Autophagy and Sensitizes Cancer Cells to Nutrient Stress” (iScience, 2018)

Columns and labels:
[1] = target: Glycogen synthase kinase-3 beta (Homo sapiens) (UniProt P49841); assay: Inhibition of human recombinant GSK3B at 500 nM in presence of ATP by radiometric assay relative to control
[2] = target: T1, Serine/threonine-protein kinase Nek3 (Homo sapiens) (UniProt P51956); assay: Inhibition of human recombinant NEK3 at 500 nM in presence of ATP by radiometric assay relative to control
T1 sequence (whole entry): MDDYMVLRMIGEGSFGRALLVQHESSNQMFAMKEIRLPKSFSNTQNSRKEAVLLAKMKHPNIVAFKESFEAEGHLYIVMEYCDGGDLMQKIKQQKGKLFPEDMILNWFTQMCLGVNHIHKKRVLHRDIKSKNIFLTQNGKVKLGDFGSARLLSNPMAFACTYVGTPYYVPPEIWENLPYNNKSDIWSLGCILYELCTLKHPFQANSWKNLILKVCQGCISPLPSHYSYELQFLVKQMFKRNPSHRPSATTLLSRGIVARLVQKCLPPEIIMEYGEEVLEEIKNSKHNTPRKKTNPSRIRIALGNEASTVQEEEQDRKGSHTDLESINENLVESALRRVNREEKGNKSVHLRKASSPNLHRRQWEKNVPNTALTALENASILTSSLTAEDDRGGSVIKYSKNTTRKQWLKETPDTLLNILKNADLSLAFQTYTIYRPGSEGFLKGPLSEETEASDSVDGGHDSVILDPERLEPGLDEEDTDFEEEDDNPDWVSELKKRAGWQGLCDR

[3] = target: Mitogen-activated protein kinase kinase kinase 20 (Homo sapiens) (UniProt Q9NYL2); assay: Inhibition of human recombinant ZAK at 500 nM in presence of ATP by radiometric assay relative to control
[4] = target: G protein-coupled receptor kinase 5 (Homo sapiens) (UniProt P34947); assay: Inhibition of human recombinant GPRK5 at 500 nM related to control ULK1
[5] = target: Eukaryotic translation initiation factor 2-alpha kinase 1 (Homo sapiens) (UniProt Q9BQI3); assay: Inhibition of human recombinant HRI at 500 nM related to control ULK1
[6] = target: Serine/threonine-protein kinase PAK 4 (Homo sapiens) (UniProt O96013); assay: Inhibition of human recombinant PAK4 at 15 nM in presence of ATP by radiometric assay relative to control
[7] = target: Rho-associated protein kinase 2 (Homo sapiens) (UniProt O75116); assay: Inhibition of human recombinant ROCK2 at 15 nM in presence of ATP by radiometric assay relative to control
[8] = target: T2, Dual specificity tyrosine-phosphorylation-regulated kinase 2 (Homo sapiens) (UniProt Q92630); assay: Inhibition of human recombinant DYRK2 at 40 nM in presence of ATP by radiometric assay relative to control
T2 sequence (whole entry): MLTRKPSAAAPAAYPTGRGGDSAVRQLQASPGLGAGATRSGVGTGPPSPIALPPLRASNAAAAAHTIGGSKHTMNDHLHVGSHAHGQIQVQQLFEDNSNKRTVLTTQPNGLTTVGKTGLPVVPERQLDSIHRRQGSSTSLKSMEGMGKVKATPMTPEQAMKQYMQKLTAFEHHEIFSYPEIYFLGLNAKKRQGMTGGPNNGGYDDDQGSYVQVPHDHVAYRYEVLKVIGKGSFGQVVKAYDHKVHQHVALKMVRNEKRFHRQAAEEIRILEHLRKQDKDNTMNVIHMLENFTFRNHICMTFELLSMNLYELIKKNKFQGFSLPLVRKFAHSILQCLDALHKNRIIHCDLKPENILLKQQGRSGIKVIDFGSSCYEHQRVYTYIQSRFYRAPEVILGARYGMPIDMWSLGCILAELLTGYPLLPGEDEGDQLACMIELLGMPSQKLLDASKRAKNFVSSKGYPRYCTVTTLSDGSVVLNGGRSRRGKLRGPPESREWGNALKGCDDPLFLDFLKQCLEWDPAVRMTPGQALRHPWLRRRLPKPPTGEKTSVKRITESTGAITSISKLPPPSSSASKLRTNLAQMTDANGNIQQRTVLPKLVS

[9] = target: Serine/threonine-protein kinase PLK2 (Homo sapiens) (UniProt Q9NYY3); assay: Inhibition of human recombinant PLK2 at 40 nM in presence of ATP by radiometric assay relative to control
[10] = target: Rho-associated protein kinase 1 (Homo sapiens) (UniProt Q13464); assay: Inhibition of human recombinant ROCK1 at 40 nM in presence of ATP by radiometric assay relative to control
[11] = target: T3, Tyrosine-protein kinase ZAP-70 (Homo sapiens) (UniProt P43403); assay: Inhibition of human recombinant ZAP70 at 40 nM in presence of ATP by radiometric assay relative to control
T3 sequence (whole entry): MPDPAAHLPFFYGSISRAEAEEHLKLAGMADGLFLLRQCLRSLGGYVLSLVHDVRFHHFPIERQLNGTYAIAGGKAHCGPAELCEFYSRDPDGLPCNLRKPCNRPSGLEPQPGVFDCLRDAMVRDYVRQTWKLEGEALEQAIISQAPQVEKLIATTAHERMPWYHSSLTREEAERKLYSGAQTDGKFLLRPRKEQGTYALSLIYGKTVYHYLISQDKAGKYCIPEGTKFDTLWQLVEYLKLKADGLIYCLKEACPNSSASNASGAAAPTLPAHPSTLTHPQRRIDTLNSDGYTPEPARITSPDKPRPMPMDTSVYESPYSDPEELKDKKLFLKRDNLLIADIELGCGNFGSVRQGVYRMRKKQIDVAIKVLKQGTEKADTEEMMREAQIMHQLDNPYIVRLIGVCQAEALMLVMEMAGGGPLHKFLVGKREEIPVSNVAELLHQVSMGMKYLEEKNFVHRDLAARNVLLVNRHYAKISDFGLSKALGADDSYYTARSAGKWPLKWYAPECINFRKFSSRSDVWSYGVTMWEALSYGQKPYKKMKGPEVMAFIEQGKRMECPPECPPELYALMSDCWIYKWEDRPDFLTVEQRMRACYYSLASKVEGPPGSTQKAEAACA

[12] = target: Mitogen-activated protein kinase kinase kinase kinase 4 (Homo sapiens) (UniProt O95819); assay: Inhibition of human recombinant HGK at 40 nM related to control ULK1
Sequence of Mitogen-activated protein kinase kinase kinase kinase 4 (Homo sapiens) (O95819 2-1239 limits assumed): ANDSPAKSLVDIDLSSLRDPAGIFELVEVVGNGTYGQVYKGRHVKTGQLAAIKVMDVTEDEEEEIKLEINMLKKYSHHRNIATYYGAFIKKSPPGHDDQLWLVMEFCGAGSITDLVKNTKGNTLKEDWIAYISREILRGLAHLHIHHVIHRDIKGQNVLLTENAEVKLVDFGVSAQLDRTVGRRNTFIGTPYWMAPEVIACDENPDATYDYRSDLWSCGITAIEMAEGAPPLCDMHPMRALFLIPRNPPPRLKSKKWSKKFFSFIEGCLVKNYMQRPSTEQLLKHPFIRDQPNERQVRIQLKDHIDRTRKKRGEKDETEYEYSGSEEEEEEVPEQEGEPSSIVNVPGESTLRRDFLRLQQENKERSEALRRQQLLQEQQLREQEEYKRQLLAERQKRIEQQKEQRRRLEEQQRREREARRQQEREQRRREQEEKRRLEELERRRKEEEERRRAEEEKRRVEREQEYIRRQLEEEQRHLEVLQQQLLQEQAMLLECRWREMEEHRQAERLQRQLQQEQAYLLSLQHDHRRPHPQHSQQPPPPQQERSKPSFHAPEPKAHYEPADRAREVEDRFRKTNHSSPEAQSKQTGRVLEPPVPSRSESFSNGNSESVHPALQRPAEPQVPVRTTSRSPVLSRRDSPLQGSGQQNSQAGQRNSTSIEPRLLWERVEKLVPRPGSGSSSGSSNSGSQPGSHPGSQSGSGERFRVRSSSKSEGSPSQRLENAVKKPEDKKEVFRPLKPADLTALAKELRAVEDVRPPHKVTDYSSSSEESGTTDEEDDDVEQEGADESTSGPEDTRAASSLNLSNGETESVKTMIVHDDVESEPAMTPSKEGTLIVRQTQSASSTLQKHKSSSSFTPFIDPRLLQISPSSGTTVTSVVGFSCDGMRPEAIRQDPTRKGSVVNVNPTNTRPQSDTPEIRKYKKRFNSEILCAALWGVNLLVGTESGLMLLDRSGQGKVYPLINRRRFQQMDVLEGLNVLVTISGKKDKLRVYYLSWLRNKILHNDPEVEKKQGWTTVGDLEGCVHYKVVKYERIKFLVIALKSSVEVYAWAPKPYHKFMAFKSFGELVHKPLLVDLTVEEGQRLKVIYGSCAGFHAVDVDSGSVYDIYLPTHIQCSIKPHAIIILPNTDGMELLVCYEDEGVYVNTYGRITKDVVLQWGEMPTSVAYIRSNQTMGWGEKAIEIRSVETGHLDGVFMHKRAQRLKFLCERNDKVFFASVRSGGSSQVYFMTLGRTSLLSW

Sequence of Mitogen-activated protein kinase kinase kinase 20 (Homo sapiens) (Q9NYL2 2-800 limits assumed): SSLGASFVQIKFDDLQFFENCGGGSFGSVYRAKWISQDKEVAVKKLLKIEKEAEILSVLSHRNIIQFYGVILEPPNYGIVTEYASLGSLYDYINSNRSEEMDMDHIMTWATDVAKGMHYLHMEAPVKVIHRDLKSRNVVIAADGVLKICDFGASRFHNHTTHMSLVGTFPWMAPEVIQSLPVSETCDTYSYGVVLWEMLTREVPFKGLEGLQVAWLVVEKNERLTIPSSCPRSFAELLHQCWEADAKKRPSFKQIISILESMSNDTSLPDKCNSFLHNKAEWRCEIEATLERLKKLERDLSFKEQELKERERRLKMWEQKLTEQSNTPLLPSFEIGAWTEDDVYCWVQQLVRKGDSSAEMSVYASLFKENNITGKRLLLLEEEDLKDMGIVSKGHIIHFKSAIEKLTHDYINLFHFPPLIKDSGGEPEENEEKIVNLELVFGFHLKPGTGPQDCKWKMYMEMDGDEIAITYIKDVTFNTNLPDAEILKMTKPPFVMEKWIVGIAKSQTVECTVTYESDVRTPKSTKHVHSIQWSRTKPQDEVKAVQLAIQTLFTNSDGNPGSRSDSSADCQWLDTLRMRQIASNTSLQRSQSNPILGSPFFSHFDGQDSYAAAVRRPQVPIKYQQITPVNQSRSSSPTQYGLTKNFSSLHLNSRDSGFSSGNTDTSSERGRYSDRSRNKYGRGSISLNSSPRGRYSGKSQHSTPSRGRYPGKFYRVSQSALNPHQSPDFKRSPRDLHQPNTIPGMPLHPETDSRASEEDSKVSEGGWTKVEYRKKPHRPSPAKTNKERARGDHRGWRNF
Sequence of G protein-coupled receptor kinase 5 (Homo sapiens) (P34947 whole entry, looked up): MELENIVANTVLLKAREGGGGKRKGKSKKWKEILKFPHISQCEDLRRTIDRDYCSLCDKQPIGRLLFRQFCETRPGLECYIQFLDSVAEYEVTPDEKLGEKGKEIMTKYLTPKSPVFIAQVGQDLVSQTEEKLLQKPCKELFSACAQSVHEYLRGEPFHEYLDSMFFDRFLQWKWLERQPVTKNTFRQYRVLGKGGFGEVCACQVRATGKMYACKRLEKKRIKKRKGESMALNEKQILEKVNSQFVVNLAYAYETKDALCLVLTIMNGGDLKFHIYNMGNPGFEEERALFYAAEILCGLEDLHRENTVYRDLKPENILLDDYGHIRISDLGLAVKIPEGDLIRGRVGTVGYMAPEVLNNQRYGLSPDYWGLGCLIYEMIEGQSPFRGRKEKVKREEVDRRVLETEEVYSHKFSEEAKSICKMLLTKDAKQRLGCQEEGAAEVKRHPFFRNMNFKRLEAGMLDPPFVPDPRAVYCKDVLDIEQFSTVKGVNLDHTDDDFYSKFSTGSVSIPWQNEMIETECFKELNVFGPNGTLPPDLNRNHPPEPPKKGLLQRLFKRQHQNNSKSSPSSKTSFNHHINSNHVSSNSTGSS
Sequence of Rho-associated protein kinase 2 (Homo sapiens) (O75116 whole entry, looked up): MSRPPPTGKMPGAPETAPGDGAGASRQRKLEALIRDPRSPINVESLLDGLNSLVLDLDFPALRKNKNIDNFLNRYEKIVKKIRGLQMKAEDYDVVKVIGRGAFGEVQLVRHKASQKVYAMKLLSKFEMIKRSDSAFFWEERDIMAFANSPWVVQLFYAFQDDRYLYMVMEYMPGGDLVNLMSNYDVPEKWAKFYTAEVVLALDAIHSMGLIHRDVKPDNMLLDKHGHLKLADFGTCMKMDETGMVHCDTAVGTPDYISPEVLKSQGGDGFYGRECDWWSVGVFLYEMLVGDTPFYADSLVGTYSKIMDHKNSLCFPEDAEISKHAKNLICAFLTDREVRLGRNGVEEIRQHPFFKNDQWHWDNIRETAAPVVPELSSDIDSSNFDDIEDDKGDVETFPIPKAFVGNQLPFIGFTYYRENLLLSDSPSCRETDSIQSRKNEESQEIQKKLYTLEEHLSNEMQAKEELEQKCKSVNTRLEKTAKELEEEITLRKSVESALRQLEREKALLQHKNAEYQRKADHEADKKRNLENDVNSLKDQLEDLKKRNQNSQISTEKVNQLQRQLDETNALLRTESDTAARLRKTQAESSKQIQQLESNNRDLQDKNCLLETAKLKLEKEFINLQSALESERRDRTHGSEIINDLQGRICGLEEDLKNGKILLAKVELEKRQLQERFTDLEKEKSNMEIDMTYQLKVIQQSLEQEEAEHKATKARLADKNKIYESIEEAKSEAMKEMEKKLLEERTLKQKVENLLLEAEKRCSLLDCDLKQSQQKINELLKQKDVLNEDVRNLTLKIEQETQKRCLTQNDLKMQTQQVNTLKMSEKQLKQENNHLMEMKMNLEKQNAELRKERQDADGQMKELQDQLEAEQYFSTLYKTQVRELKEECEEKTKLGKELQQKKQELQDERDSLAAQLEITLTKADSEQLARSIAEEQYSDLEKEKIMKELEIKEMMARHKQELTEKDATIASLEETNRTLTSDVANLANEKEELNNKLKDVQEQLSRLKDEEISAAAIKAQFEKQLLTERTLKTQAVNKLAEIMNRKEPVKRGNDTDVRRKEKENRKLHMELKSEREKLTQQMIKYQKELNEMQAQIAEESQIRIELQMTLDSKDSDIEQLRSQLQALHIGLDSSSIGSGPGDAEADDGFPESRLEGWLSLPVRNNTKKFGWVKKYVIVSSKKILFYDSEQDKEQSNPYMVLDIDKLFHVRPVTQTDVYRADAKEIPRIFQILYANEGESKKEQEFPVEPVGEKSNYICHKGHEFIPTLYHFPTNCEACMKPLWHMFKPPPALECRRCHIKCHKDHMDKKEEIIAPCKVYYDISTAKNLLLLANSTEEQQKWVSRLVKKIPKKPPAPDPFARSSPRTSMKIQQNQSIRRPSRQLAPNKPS
Sequence of Eukaryotic translation initiation factor 2-alpha kinase 1 (Homo sapiens) (Q9BQI3 whole entry): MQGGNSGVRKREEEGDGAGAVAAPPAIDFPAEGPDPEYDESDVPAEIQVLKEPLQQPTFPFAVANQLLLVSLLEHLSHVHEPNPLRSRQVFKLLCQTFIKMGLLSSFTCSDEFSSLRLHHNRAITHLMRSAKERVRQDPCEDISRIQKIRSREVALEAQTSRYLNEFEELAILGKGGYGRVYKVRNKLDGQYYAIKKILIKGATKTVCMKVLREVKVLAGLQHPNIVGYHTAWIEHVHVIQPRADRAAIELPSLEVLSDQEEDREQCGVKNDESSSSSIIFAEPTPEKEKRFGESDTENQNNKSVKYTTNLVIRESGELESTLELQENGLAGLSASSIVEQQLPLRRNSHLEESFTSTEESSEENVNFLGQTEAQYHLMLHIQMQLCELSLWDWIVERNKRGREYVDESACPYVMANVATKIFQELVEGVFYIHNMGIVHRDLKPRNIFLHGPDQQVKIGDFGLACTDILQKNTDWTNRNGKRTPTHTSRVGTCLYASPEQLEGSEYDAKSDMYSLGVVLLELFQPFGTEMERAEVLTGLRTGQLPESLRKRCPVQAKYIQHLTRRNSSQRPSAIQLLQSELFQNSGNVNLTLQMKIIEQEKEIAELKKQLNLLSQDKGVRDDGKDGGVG
Sequence of Glycogen synthase kinase-3 beta (Homo sapiens) (P49841 whole entry, looked up): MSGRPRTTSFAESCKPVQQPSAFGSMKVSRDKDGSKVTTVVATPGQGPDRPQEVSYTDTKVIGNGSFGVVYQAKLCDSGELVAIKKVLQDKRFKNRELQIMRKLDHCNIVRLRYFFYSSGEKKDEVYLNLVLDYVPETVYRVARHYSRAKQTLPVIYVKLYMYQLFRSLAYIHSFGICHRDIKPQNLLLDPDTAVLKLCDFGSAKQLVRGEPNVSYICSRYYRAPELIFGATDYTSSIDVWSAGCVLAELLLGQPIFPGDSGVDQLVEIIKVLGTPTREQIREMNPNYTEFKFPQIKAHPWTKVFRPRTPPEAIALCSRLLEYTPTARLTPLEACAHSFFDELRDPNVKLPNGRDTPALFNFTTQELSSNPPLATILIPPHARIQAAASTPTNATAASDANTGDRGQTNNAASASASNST

## CNC(=O)c1ccccc1Oc1nc(Nc2cc(OC)c(OC)c(OC)c2)ncc1Br
[1]
  inhibition: 0%
[2]
  inhibition: 7%
[3]
  inhibition: 1%
[4]
  fold change (FC): 0.01
[5]
  fold change (FC): 0

## CC(C)[C@H](NC(=O)c1cc(-c2cnn3cc(-c4ccc(OCCN5CCCCC5)cc4)cnc23)cs1)C(F)(F)F
[6]
  inhibition: 0%
[7]
  inhibition: 0%

## O=C(N[C@@H](C1CC1)C(F)(F)F)c1cc(-c2cnn3cc(-c4ccc(F)cc4)cnc23)cs1
[8]
  inhibition: 11%
[9]
  inhibition: 3%
[10]
  inhibition: 0%
[11]
  inhibition: 0%
[12]
  fold change (FC): 0
